# Source: ChEMBL document CHEMBL3734741, “Pyrazole clubbed triazolo[1,5-a]pyrimidine hybrids as an anti-tubercular agents: Synthesis, in vitro screening and molecular docking study” (Bioorg Med Chem, 2015)
# Key:
# [1] = system: Mycobacterium tuberculosis; experiment: Antituberculosis activity against Mycobacterium tuberculosis H37Rv MTCC 300 at 6.25 ug/ml after 4 weeks by Lowenstein-Jensen medium method; format: functional; conditions: H37Rv MTCC 300, 672 h
# [2] = Selectivity index, ratio of CC50 for African green monkey Vero cells to IC50 Mycobacterium tuberculosis InhA; format: functional
# [3] = Cytotoxicity against African green monkey Vero cells after 72 hrs by MTT assay; format: cell-based; conditions: chlorocebus sabaeus
# [4] = system: Mycobacterium tuberculosis; experiment: Antituberculosis activity against Mycobacterium tuberculosis H37Rv MTCC 300 after 4 weeks by Lowenstein-Jensen medium method; format: functional; conditions: H37Rv MTCC 300, 672 h
# [5] = Inhibition of Mycobacterium tuberculosis InhA assessed as conversion of crotonoyl-CoA to butyryl-CoA by spectrophotometric method
Structure (SMILES),inhibition at 6.25 µg/mL [1],further results
CC(C)C1=C(C(=O)Nc2ccccn2)C(c2cn(-c3ccccc3)nc2-c2ccc(Cl)cc2)n2ncnc2N1 (stereo not given),81%,–
Cc1ccc(NC(=O)C2=C(C(C)C)Nc3ncnn3C2c2cn(-c3ccccc3)nc2-c2ccc(Cl)cc2)nc1 (stereo not given),76%,–
Cc1ccc(-c2nn(-c3ccccc3)cc2C2C(C(=O)Nc3ccc(Br)cn3)=C(C(C)C)Nc3ncnn32)cc1 (stereo not given),66%,–
CC(C)C1=C(C(=O)Nc2ccc(Br)cn2)C(c2cn(-c3ccccc3)nc2-c2ccc(F)cc2)n2ncnc2N1 (stereo not given),88%,–
CC1=C(C(=O)Nc2ccccn2)C(c2cn(-c3ccccc3)nc2-c2ccc([N+](=O)[O-])cc2)n2ncnc2N1 (stereo not given),84%,–
CC1=C(C(=O)Nc2ccccn2)C(c2cn(-c3ccccc3)nc2-c2ccc(Cl)cc2)n2ncnc2N1 (stereo not given),84%,–
CC(C)C1=C(C(=O)Nc2ccc(Br)cn2)C(c2cn(-c3ccccc3)nc2-c2ccc([N+](=O)[O-])cc2)n2ncnc2N1 (stereo not given),78%,–
CC(C)C1=C(C(=O)Nc2ccccn2)C(c2cn(-c3ccccc3)nc2-c2ccc(F)cc2)n2ncnc2N1 (stereo not given),84%,–
CC1=C(C(=O)Nc2ccccn2)C(c2cn(-c3ccccc3)nc2-c2ccc(C)cc2)n2ncnc2N1 (stereo not given),56%,–
CC(C)C1=C(C(=O)Nc2ccc(Br)cn2)C(c2cn(-c3ccccc3)nc2-c2ccccc2)n2ncnc2N1 (stereo not given),54%,–
Cc1ccc(NC(=O)C2=C(C(C)C)Nc3ncnn3C2c2cn(-c3ccccc3)nc2-c2ccc(F)cc2)nc1 (stereo not given),82%,–
Cc1ccc(NC(=O)C2=C(C(C)C)Nc3ncnn3C2c2cn(-c3ccccc3)nc2-c2ccccc2)nc1 (stereo not given),42%,–
CC1=C(C(=O)Nc2ccccn2)C(c2cn(-c3ccccc3)nc2-c2ccccc2)n2ncnc2N1 (stereo not given),72%,–
Cc1ccc(NC(=O)C2=C(C(C)C)Nc3ncnn3C2c2cn(-c3ccccc3)nc2-c2ccc([N+](=O)[O-])cc2)nc1 (stereo not given),68%,–
CC1=C(C(=O)Nc2ccc(Br)cn2)C(c2cn(-c3ccccc3)nc2-c2ccccc2)n2ncnc2N1 (stereo not given),95%,Ratio CC50/IC50 [2]: 29.41; CC50 at 72 h [3]: 25 µg/mL; MIC [4]: 3.13 µg/mL; IC50 [5]: 0.85 µg/mL
Cc1ccc(-c2nn(-c3ccccc3)cc2C2C(C(=O)Nc3ccccn3)=C(C(C)C)Nc3ncnn32)cc1 (stereo not given),55%,–
Cc1ccc(-c2nn(-c3ccccc3)cc2C2C(C(=O)Nc3ccc(C)cn3)=C(C(C)C)Nc3ncnn32)cc1 (stereo not given),46%,–

Structure (SMILES),inhibition at 6.25 µg/mL [1],further results
CC1=C(C(=O)Nc2ccc(Br)cn2)C(c2cn(-c3ccccc3)nc2-c2ccc(Cl)cc2)n2ncnc2N1 (stereo not given),98%,Ratio CC50/IC50 [2]: 181.81; CC50 at 72 h [3]: 20 µg/mL; MIC [4]: 0.78 µg/mL; IC50 [5]: 0.11 µg/mL
CC1=C(C(=O)Nc2ccc(Br)cn2)C(c2cn(-c3ccccc3)nc2-c2ccc(F)cc2)n2ncnc2N1 (stereo not given),99%,Ratio CC50/IC50 [2]: 181.81; CC50 at 72 h [3]: 20 µg/mL; MIC [4]: 0.39 µg/mL; IC50 [5]: 0.11 µg/mL
CC1=C(C(=O)Nc2ccccn2)C(c2cn(-c3ccccc3)nc2-c2ccc(F)cc2)n2ncnc2N1 (stereo not given),99%,Ratio CC50/IC50 [2]: 125; CC50 at 72 h [3]: 20 µg/mL; MIC [4]: 0.78 µg/mL; IC50 [5]: 0.16 µg/mL
CC1=C(C(=O)Nc2ccc(C)cn2)C(c2cn(-c3ccccc3)nc2-c2ccc(Cl)cc2)n2ncnc2N1 (stereo not given),79%,–
CC1=C(C(=O)Nc2ccc(C)cn2)C(c2cn(-c3ccccc3)nc2-c2ccc(F)cc2)n2ncnc2N1 (stereo not given),86%,–
CC1=C(C(=O)Nc2ccc(Br)cn2)C(c2cn(-c3ccccc3)nc2-c2ccc([N+](=O)[O-])cc2)n2ncnc2N1 (stereo not given),96%,Ratio CC50/IC50 [2]: 89.28; CC50 at 72 h [3]: 25 µg/mL; MIC [4]: 1.56 µg/mL; IC50 [5]: 0.28 µg/mL
CC1=C(C(=O)Nc2ccc(Br)cn2)C(c2cn(-c3ccccc3)nc2-c2ccc(C)cc2)n2ncnc2N1 (stereo not given),64%,–
CC(C)C1=C(C(=O)Nc2ccc(Br)cn2)C(c2cn(-c3ccccc3)nc2-c2ccc(Cl)cc2)n2ncnc2N1 (stereo not given),84%,–
CC(C)C1=C(C(=O)Nc2ccccn2)C(c2cn(-c3ccccc3)nc2-c2ccc([N+](=O)[O-])cc2)n2ncnc2N1 (stereo not given),74%,–
CC1=C(C(=O)Nc2ccc(C)cn2)C(c2cn(-c3ccccc3)nc2-c2ccc([N+](=O)[O-])cc2)n2ncnc2N1 (stereo not given),68%,–
CC1=C(C(=O)Nc2ccc(C)cn2)C(c2cn(-c3ccccc3)nc2-c2ccc(C)cc2)n2ncnc2N1 (stereo not given),49%,–
CC(C)C1=C(C(=O)Nc2ccccn2)C(c2cn(-c3ccccc3)nc2-c2ccccc2)n2ncnc2N1 (stereo not given),45%,–
CC1=C(C(=O)Nc2ccc(C)cn2)C(c2cn(-c3ccccc3)nc2-c2ccccc2)n2ncnc2N1 (stereo not given),66%,–
CC[C@@H](CO)NCCN[C@@H](CC)CO [ETHAMBUTOL],99%,MIC [4]: 3.12 µg/mL
NNC(=O)c1ccncc1 [ISONIAZID],–,MIC [4]: 0.3 µg/mL
CO[C@H]1/C=C/O[C@@]2(C)Oc3c(C)c(O)c4c(O)c(c(/C=N/N5CCN(C)CC5)c(O)c4c3C2=O)NC(=O)/C(C)=C\C=C\[C@H](C)[C@H](O)[C@@H](C)[C@@H](O)[C@@H](C)[C@H](OC(C)=O)[C@@H]1C [RIFAMPIN],99%,MIC [4]: 0.5 µg/mL
